Measurements from US20230091047A1 (priority 2019, published 2023).

Key:
[1] = test system: HBV (HepG2.117 cell line, inducibly HBV producing); assay: Anti-HBV activity: intracellular HBV DNA by real-time PCR in HepG2.117 cells after 3 days of treatment; type: cell-based, hepatitis B virus; settings: Hepatitis B virus, HepG2.117, 72 h, HepG2.117 cells, 3 days of treatment, intracellular HBV DNA by real-time PCR; mean value; read-out: EC50 (μM, mean value)
Summary of the method: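 Antiviral effect is expressed through intracellular HBV DNA levels, determined by real-time PCR with a virus-specific probe. These levels were measured after 3 days of treatment with compound dilutions, in HepG2.117 cells induced to replicate HBV.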

in vitro = type: cell-based; settings: human, HepG2 or HepG2.117 cells, 3-days incubation (unmarked values), ATPlite; mean value
Summary of the method: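 Luminescent ATP quantitation served as the viability endpoint following a 3- or 4-day incubation with test compounds.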

## CNC(=O)c1ccc(-n2c(NC(C)C)nc3c(c2=O)C[C@@H](C)N(C(=O)c2ccc(Cl)c(Cl)c2)C3)cc1OC [Compound C317, 4-[(6R)-7-(3,4-dichlorobenzoyl)-6-methyl-4-oxo-2-[(propan-2-yl)amino]-5,6,7,8-tetrahydropyrido[3,4-d]pyrimidin-3(4H)-yl]-2-methoxy-N-methylbenzamide]
[1]
  EC50: 0.14 µM
In vitro
  CC50 at 3 days: > 50 µM

## CNC(=O)c1cc(Cl)c(-n2c(NC(C)C)nc3c(c2=O)C[C@@H](C)N(C(=O)c2ccc(Cl)c(Cl)c2)C3)cc1OC [Compound C322, 5-chloro-4-[(6R)-7-(3,4-dichlorobenzoyl)-6-methyl-4-oxo-2-[(propan-2-yl)amino]-5,6,7,8-tetrahydropyrido[3,4-d]pyrimidin-3(4H)-yl]-2-methoxy-N-methylbenzamide]
[1]
  EC50: 0.28 µM
In vitro
  CC50 at 3 days: 24.2 µM

## CC(C)Nc1nc2c(c(=O)n1-c1cccc3c1CNC3=O)C[C@@H](C)N(C(=O)c1ccc(Cl)c(Cl)c1)C2 [Compound C323, (6R)-7-(3,4-dichlorobenzoyl)-6-methyl-3-(1-oxo-2,3-dihydro-1H-isoindol-4-yl)-2-[(propan-2-yl)amino]-5,6,7,8-tetrahydropyrido[3,4-d]pyrimidin-4(3H)-one]
[1]
  EC50: 0.35 µM
In vitro
  CC50 at 3 days: > 50 µM

## Cc1nc(-c2ccc(-n3c(NC(C)C)nc4c(c3=O)C[C@@H](C)N(C(=O)c3ccc(Cl)c(Cl)c3)C4)c(Cl)c2)c[nH]1 [Compound C324, (6R)-3-[2-chloro-4-(2-methyl-1H-imidazol-4-yl)phenyl]-7-(3,4-dichlorobenzoyl)-6-methyl-2-[(propan-2-yl)amino]-5,6,7,8-tetrahydropyrido[3,4-d]pyrimidin-4(3H)-one]
[1]
  EC50: 0.41 µM
In vitro
  CC50 at 3 days: > 50 µM

## CNC(=O)c1ccc(-n2c(NCc3ccc4cc[nH]c4c3)nc3c(c2=O)C[C@@H](C)N(C(=O)c2ccc(Cl)c(Cl)c2)C3)cc1 [Compound C325, 4-[(6R)-7-(3,4-dichlorobenzoyl)-2-{[(1H-indol-6-yl)methyl]amino}-6-methyl-4-oxo-5,6,7,8-tetrahydropyrido[3,4-d]pyrimidin-3(4H)-yl]-N-methylbenzamide]
[1]
  EC50: 0.42 µM
In vitro
  CC50 at 3 days: 22.8 µM

## CNC(=O)c1ccc(-n2c(N[C@H](C)CCO)nc3c(c2=O)C[C@@H](C)N(C(=O)c2ccc(Cl)c(Cl)c2)C3)cc1 [Compound C326, 4-[(6R)-7-(3,4-dichlorobenzoyl)-2-{[(2R)-4-hydroxybutan-2-yl]amino}-6-methyl-4-oxo-5,6,7,8-tetrahydropyrido[3,4-d]pyrimidin-3(4H)-yl]-N-methylbenzamide]
[1]
  EC50: 0.46 µM
In vitro
  CC50 at 3 days: > 50 µM

## CNC(=O)c1ncc(-n2c(NC)nc3c(c2=O)C[C@@H](C)N(C(=O)c2ccc(Cl)c(Cl)c2)C3)cn1 [Compound C327, 5-[(6R)-7-(3,4-dichlorobenzoyl)-6-methyl-2-(methylamino)-4-oxo-5,6,7,8-tetrahydropyrido[3,4-d]pyrimidin-3(4H)-yl]-N-methylpyrimidine-2-carboxamide]
[1]
  EC50: 5.15 µM
In vitro
  CC50 at 3 days: > 50 µM

## CNC(=O)c1ncc(-n2c(NC(C)C)nc3c(c2=O)C[C@@H](C)N(C(=O)c2ccc(Cl)c(Cl)c2)C3)cn1 [Compound C328, 5-[(6R)-7-(3,4-dichlorobenzoyl)-6-methyl-4-oxo-2-[(propan-2-yl)amino]-5,6,7,8-tetrahydropyrido[3,4-d]pyrimidin-3(4H)-yl]-N-methylpyrimidine-2-carboxamide]
[1]
  EC50: 0.51 µM
In vitro
  CC50 at 3 days: > 50 µM

## CNC(=O)c1ccc(-n2c(NC3CC3)nc3c(c2=O)C[C@@H](C)N(C(=O)c2ccc(Cl)c(Cl)c2)C3)cc1 [Compound C329, 4-[(6R)-2-(cyclopropylamino)-7-(3,4-dichlorobenzoyl)-6-methyl-4-oxo-5,6,7,8-tetrahydropyrido[3,4-d]pyrimidin-3(4H)-yl]-N-methylbenzamide]
[1]
  EC50: 0.55 µM
In vitro
  CC50 at 3 days: > 50 µM

## CNC(=O)c1ccc(-n2c(N[C@H](C)CO)nc3c(c2=O)C[C@@H](C)N(C(=O)c2ccc(Cl)c(Cl)c2)C3)cc1 [Compound C330, 4-[(6R)-7-(3,4-dichlorobenzoyl)-2-{[(2R)-1-hydroxypropan-2-yl]amino}-6-methyl-4-oxo-5,6,7,8-tetrahydropyrido[3,4-d]pyrimidin-3(4H)-yl]-N-methylbenzamide]
[1]
  EC50: 0.9 µM
In vitro
  CC50 at 3 days: > 50 µM

## CNC(=O)c1ccc(-n2c(NC)nc3c(c2=O)C[C@@H](C)N(C(=O)c2ccc(Cl)c(Cl)c2)C3)nc1 [Compound C331, 6-[(6R)-7-(3,4-dichlorobenzoyl)-6-methyl-2-(methylamino)-4-oxo-5,6,7,8-tetrahydropyrido[3,4-d]pyrimidin-3(4H)-yl]-N-methylpyridine-3-carboxamide]
[1]
  EC50: 0.95 µM
In vitro
  CC50 at 3 days: > 50 µM

## CNC(=O)c1ccc(-n2c(N3CC4(CCC4)C3)nc3c(c2=O)C[C@@H](C)N(C(=O)c2ccc(Cl)c(Cl)c2)C3)cc1 [Compound C332, 4-[(6R)-2-(2-azaspiro[3.3]heptan-2-yl)-7-(3,4-dichlorobenzoyl)-6-methyl-4-oxo-5,6,7,8-tetrahydropyrido[3,4-d]pyrimidin-3(4H)-yl]-N-methylbenzamide]
[1]
  EC50: 1.46 µM
In vitro
  CC50 at 3 days: 26 µM

## CNC(=O)c1ccc(-n2c(NC3CC3(C)C)nc3c(c2=O)C[C@@H](C)N(C(=O)c2ccc(Cl)c(Cl)c2)C3)cc1 (stereo partly drawn) [Compound C333, 4-[(6R)-7-(3,4-dichlorobenzoyl)-2-[(2,2-dimethylcyclopropyl)amino]-6-methyl-4-oxo-5,6,7,8-tetrahydropyrido[3,4-d]pyrimidin-3(4H)-yl]-N-methylbenzamide]
[1]
  EC50: 1.64 µM
In vitro
  CC50 at 3 days: > 43 µM

## CNC(=O)c1ccc(-n2c(N[C@H]3CC3(C)C)nc3c(c2=O)C[C@@H](C)N(C(=O)c2ccc(Cl)c(Cl)c2)C3)cc1 [Compound C334, 4-[(6R)-7-(3,4-dichlorobenzoyl)-2-{[(1S)-2,2-dimethylcyclopropyl]amino}-6-methyl-4-oxo-5,6,7,8-tetrahydropyrido[3,4-d]pyrimidin-3(4H)-yl]-N-methylbenzamide]
[1]
  EC50: 1.89 µM
In vitro
  CC50 at 3 days: > 50 µM

## CNC(=O)c1ccc(-n2c(N[C@H](C)CC(=O)O)nc3c(c2=O)C[C@@H](C)N(C(=O)c2ccc(Cl)c(Cl)c2)C3)cc1 [Compound C336, (3R)-3-({(6R)-7-(3,4-dichlorobenzoyl)-6-methyl-3-[4-(methylcarbamoyl)phenyl]-4-oxo-3,4,5,6,7,8-hexahydropyrido[3,4-d]pyrimidin-2-yl}amino)butanoic acid]
[1]
  EC50: 7.66 µM
In vitro
  CC50 at 3 days: > 50 µM

## CNC(=O)c1ccc(-n2c(NC(C)C)nc3c(c2=O)C[C@@H](C)N(C(=O)c2ccc(Cl)c(Cl)c2)C3)cc1Cl [Compound C338, 2-chloro-4-[(6R)-7-(3,4-dichlorobenzoyl)-6-methyl-4-oxo-2-[(propan-2-yl)amino]-5,6,7,8-tetrahydropyrido[3,4-d]pyrimidin-3(4H)-yl]-N-methylbenzamide]
[1]
  EC50: 0.1 µM
In vitro
  CC50 at 3 days: > 50 µM

## CNS(=O)(=O)c1ccc(-n2c(NC(C)C)nc3c(c2=O)C[C@@H](C)N(C(=O)c2ccc(Cl)c(Cl)c2)C3)cc1 [Compound C339, 4-[(6R)-7-(3,4-dichlorobenzoyl)-6-methyl-4-oxo-2-[(propan-2-yl)amino]-5,6,7,8-tetrahydropyrido[3,4-d]pyrimidin-3(4H)-yl]-N-methylbenzene-1-sulfonamide]
[1]
  EC50: 0.57 µM
In vitro
  CC50 at 3 days: > 50 µM
